As a reminder, the IC50 is the concentration needed to halve the response being measured.

SMILES strings stand for the structures.

The assay concerns IFNγ-Induced NO Production. The assay can be described thus: Nitric Oxide Suppression Assay (Suppression of IFNγ-Induced NO Production). The format is cell-based. The conditions noted are these: RAW264.7; RAW 264.7 mouse macrophage cells; 2 hour pre-treatment with compound (3 μM to 0.3 nM, 10 point curve); 20 ng/mL interferon gamma, ~18 hour; Griess detection; n=2-3 in duplicates. As to the method:
RAW 264.7, a mouse macrophage cell line, was obtained from American Type Culture Collection (Manassas Va.) and maintained in the log phase of growth in Dulbecco's Modified Eagle's Medium (DMEM), 10% heat inactivated fetal calf serum and 100 units/mL antibiotic-antimycotic (AA). Cells were cultured and maintained in a humidified incubator at 37° C. under 5% CO2 and 95% air. Cells were sub-cultured every 3 days by scraping and were not used beyond passage 20. All cell culture supplies were obtained from Life Technologies (Grand Island, N.Y.).
RAW 264.7 cells were plated 1 day in advance of experiment at a concentration of 80,000 cells/well onto CellBIND® 96 well plates (Corning, N.Y.) in a total volume of 100 μL. The next day, pre-treat cells with compounds (from 3 μM to 0.3 nM serially diluted in a 10 point curve) from a 10× stock by adding 10 μL per well in complete DMEM media containing 10% fetal calf serum. The plates were centrifuged for 3 minutes at 400×g at room temperature followed by 2 hour incubation at 37° C. The cells were then incubated overnight at 37° C. with 10 μL of the insult, interferon gamma (R&D Systems, Minneapolis, Minn.), from a 10× stock for a final concentration of 20 ng/mL. The plates were centrifuged for 3 minutes at 400×g at room temperature followed by ˜18 hour incubation at 37° C. The following day, transfer 50 μL cell culture supernatant from each well into a clear bottom 96 well plate and follow the instructions from Promega's Griess Detection Kit #G2930 (Madison, Wis.) which involves the addition of 50 μL of the provided sulfanilamide solution for a 5-10 minute incubation at room temperature. Next add 50 μL of the provided N-1-napthylethylenediamine dihydrochloride (NED) solution for a 5-10 minute incubation at room temperature and protected from light. If any air bubbles were introduced into the well, the plates need to be centrifuged for 5 minutes at 400×g at room temperature to avoid interference with absorbance readings. The plates were read for absorbance within 30 minutes with a filter between 520 nm and 550 nm.
For the ability of compounds to suppress the increase in nitric oxide release, the percent maximal intensity of nitric oxide detected in each well was normalized to that induced by the peak value for 20 ng/mL of interferon gamma alone and plotted against the compound concentration to calculate IC50 values and to control for plate-to-plate variability. Concentration-response data were analyzed using GraphPad Prism (San Diego, Calif.); the IC50 values were derived from a single curve fit to the mean data of n=2-3, in duplicates.
All compounds were dissolved in dimethyl sulfoxide at 10 mM stock solutions and tested at a concentration that the dimethyl sulfoxide levels never exceeded 1%.
Background: The Griess reaction detects nitrite, a stable product of nitric oxide.
Regarding `C[C@@H]1C(=O)C(C#N)=C[C@]2(Cc3ccccc3)c3nn(C)cc3CC[C@@H]12` (racemic) [Example 162, rac-(5aS,6S,9aR)-9a-benzyl-2,6-dimethyl-7-oxo-4,5,5a,6,7,9a-hexahydro-2H-benzo[g]indazole-8-carbonitrile], the concentration for half-maximal inhibition (IC50) is 0.231 µM.

For `Cc1nc(-c2ccc3ncccc3c2)c2c(n1)[C@@]1(c3ccccc3)C=C(C#N)C(=O)[C@@H](C)[C@@H]1CC2` [Example 45, (6aS,7S,10aR)-2,7-dimethyl-8-oxo-10a-phenyl-4-(quinolin-6-yl)-5,6,6a,7,8,10a-hexahydrobenzo[h]quinazoline-9-carbonitrile], the IC50 is 0.106 µM. In the case of `Cc1nc(-c2c[nH]c(=O)[nH]c2=O)c2c(n1)[C@@]1(c3ccc(F)cc3)C=C(C#N)C(=O)[C@@H](C)[C@@H]1CC2` [Example 94, (6aS,7S,10aR)-4-(2,4-dioxo-1,2,3,4-tetrahydropyrimidin-5-yl)-10a-(4-fluorophenyl)-2,7-dimethyl-8-oxo-5,6,6a,7,8,10a-hexahydrobenzo[h]quinazoline-9-carbonitrile], the IC50 was determined as 0.639 µM. With `Cc1nc(-c2ccc3[nH]cnc3c2)c2c(n1)[C@@]1(c3ccc(F)cc3)C=C(C#N)C(=O)[C@@H](C)[C@@H]1CC2` [Example 91, (6aS,7S,10aR)-4-(1H-benzimidazol-5-yl)-10a-(4-fluorophenyl)-2,7-dimethyl-8-oxo-5,6,6a,7,8,10a-hexahydrobenzo[h]quinazoline-9-carbonitrile], the IC50 amounted to 0.0136 µM.

Consider `C[C@@H]1C(=O)C(C#N)=C[C@]2(c3ccccc3)c3n[nH]c(-c4ccc(N)nc4)c3CC[C@@H]12` [Example 106, (5aS,6S,9aR)-3-(6-aminopyridin-3-yl)-6-methyl-7-oxo-9a-phenyl-4,5,5a,6,7,9a-hexahydro-2H-benzo[g]indazole-8-carbonitrile], for which the IC50 turned out to be 0.00877 µM. As to `C[C@@H]1C(=O)C(C#N)=C[C@]2(c3ccccc3)c3nc(-c4ccccc4)ncc3CC[C@@H]12` (racemic) [Example 7, rac-(6aS,7S,10aR)-7-methyl-8-oxo-2,10a-diphenyl-5,6,6a,7,8,10a-hexahydrobenzo[h]quinazoline-9-carbonitrile], the IC50 came to 0.0304 µM. With `C[C@@H]1C(=O)C(C#N)=C[C@]2(c3ccccc3)C3=NN(C)[C@@H](c4ccccc4)[C@H]3CC[C@@H]12` [Example 105, (3R,3aR,5aS,6S,9aR)-2,6-dimethyl-7-oxo-3,9a-diphenyl-3,3a,4,5,5a,6,7,9a-octahydro-2H-benzo[g]indazole-8-carbonitrile], the half-maximal inhibitory concentration (IC50) came to 0.0345 µM. Regarding `Cc1ncc2c(n1)[C@@]1(c3ccccc3)C=C(C#N)C(=O)[C@@H](C)[C@@H]1CC2` (racemic) [Example 33, rac-(6aS,7S,10aR)-2,7-dimethyl-8-oxo-10a-phenyl-5,6,6a,7,8,10a-hexahydrobenzo[h]quinazoline-9-carbonitrile], the IC50 was determined as 0.023 µM. Turning to `C[C@@H]1C(=O)C(C#N)=C[C@]2(c3ccc(O)cc3)c3n[nH]cc3CCC12` (stereo partly drawn) [Example 72, (6S,9aR)-9a-(4-hydroxyphenyl)-6-methyl-7-oxo-4,5,5a,6,7,9a-hexahydro-2H-benzo[g]indazole-8-carbonitrile], the IC50 amounted to 0.0379 µM. On to `COC(=O)c1ccc(-c2ncc3c(n2)[C@@]2(c4ccccc4)C=C(C#N)C(=O)[C@@H](C)[C@@H]2CC3)cc1` [Example 75, methyl 4-[(6aS,7S,10aR)-9-cyano-7-methyl-8-oxo-10a-phenyl-5,6,6a,7,8,10a-hexahydrobenzo[h]quinazolin-2-yl]benzoate], for which the IC50 worked out at 0.0127 µM. For `C[C@@H]1C(=O)C(C#N)=C[C@]2(c3ccccc3)c3nc(-c4cncnc4)ncc3CC[C@@H]12` [Example 49, (6aS,7S,10aR)-7-methyl-8-oxo-10a-phenyl-2-(pyrimidin-5-yl)-5,6,6a,7,8,10a-hexahydrobenzo[h]quinazoline-9-carbonitrile] the value was 0.00715 µM; for `C[C@@H]1C(=O)C(C#N)=C[C@]2(c3ccccc3)c3c(c(-c4ccccc4)nn3C)CC[C@@H]12` (racemic) [Example 3, rac-(5aS,6S,9aR)-1,6-dimethyl-7-oxo-3,9a-diphenyl-4,5,5a,6,7,9a-hexahydro-1H-benzo[g]indazole-8-carbonitrile], 0.00719 µM; for `Cc1nc(-c2ccc(=O)n(C)c2)c2c(n1)[C@@]1(c3ccccc3)C=C(C#N)C(=O)[C@@H](C)[C@@H]1CC2` [Example 44, (6aS,7S,10aR)-2,7-dimethyl-4-(1-methyl-6-oxo-1,6-dihydropyridin-3-yl)-8-oxo-10a-phenyl-5,6,6a,7,8,10a-hexahydrobenzo[h]quinazoline-9-carbonitrile], 0.0511 µM. On to `COC(=O)c1ccc([C@]23C=C(C#N)C(=O)[C@@H](C)[C@@H]2CCc2c(-c4cncn4C)nc(C)nc23)cc1` [Example 175, methyl 4-[(6aS,7S,10aR)-9-cyano-2,7-dimethyl-4-(1-methyl-1H-imidazol-5-yl)-8-oxo-6,6a,7,8-tetrahydrobenzo[h]quinazolin-10a(5H)-yl]benzoate], for which the IC50 amounted to 0.002 µM. Consider `COc1ccc([C@]23C=C(C#N)C(=O)[C@@H](C)[C@@H]2CCc2c(-c4ccc5[nH]cnc5c4)nc(C)nc23)cc1` [Example 90, (6aS,7S,10aR)-4-(1H-benzimidazol-5-yl)-10a-(4-methoxyphenyl)-2,7-dimethyl-8-oxo-5,6,6a,7,8,10a-hexahydrobenzo[h]quinazoline-9-carbonitrile], for which the IC50 amounted to 0.00732 µM.

As to `COC(=O)c1ccc(-c2ncc3c(n2)[C@@]2(c4cccc(C(=O)OC)c4)C=C(C#N)C(=O)[C@@H](C)[C@@H]2CC3)cc1` [Example 101, methyl 3-[(6aS,7S,10aR)-9-cyano-2-[4-(methoxycarbonyl)phenyl]-7-methyl-8-oxo-6,6a,7,8-tetrahydrobenzo[h]quinazolin-10a(5H)-yl]benzoate], the concentration for half-maximal inhibition (IC50) stood at 0.0456 µM. For the compound `C[C@@H]1C(=O)C(C#N)=C[C@]2(c3ccc(O)cc3)c3ncncc3CC[C@@H]12` [Example 121, (6aS,7S,10aR)-10a-(4-hydroxyphenyl)-7-methyl-8-oxo-5,6,6a,7,8,10a-hexahydrobenzo[h]quinazoline-9-carbonitrile], the IC50 was found to be 0.00847 µM.

As to `C[C@@H]1C(=O)C(C#N)=C[C@]2(c3ccccc3)c3n[nH]c(-c4ccnnc4)c3CC[C@@H]12` [Example 140, (5aS,6S,9aR)-6-methyl-7-oxo-9a-phenyl-3-(pyridazin-4-yl)-4,5,5a,6,7,9a-hexahydro-2H-benzo[g]indazole-8-carbonitrile], the IC50 was 0.00845 µM. Turning to `Cc1nc(-c2cccc(CCCO)c2)c2c(n1)[C@@]1(c3ccccc3)C=C(C#N)C(=O)[C@@H](C)[C@@H]1CC2` [Example 110, (6aS,7S,10aR)-4-[3-(3-hydroxypropyl)phenyl]-2,7-dimethyl-8-oxo-10a-phenyl-5,6,6a,7,8,10a-hexahydrobenzo[h]quinazoline-9-carbonitrile], the IC50 is 0.00155 µM. `C[C@@H]1C(=O)C(C#N)=C[C@]2(c3ccccc3)c3nn(Cc4ccccc4)cc3CC[C@@H]12` (single isomer, unassigned) [Example 56]: the IC50 was 0.0932 µM. For `C[C@@H]1C(=O)C(C#N)=C[C@]2(c3ccccc3)c3nn(C)c(-c4cccc(-c5ccc(NS(C)(=O)=O)cc5)c4)c3CC[C@@H]12` [Example 169, N-{3′-[(5aS,6S,9aR)-8-cyano-2,6-dimethyl-7-oxo-9a-phenyl-4,5,5a,6,7,9a-hexahydro-2H-benzo[g]indazol-3-yl]biphenyl-4-yl}methanesulfonamide] the value was 0.00877 µM; for `COC(=O)c1ccc([C@]23C=C(C#N)C(=O)[C@@H](C)[C@@H]2CCc2cncnc23)cc1` [Example 64, methyl 4-[(6aS,7S,10aR)-9-cyano-7-methyl-8-oxo-6,6a,7,8-tetrahydrobenzo[h]quinazolin-10a(5H)-yl]benzoate], 0.011 µM. For `C[C@@H]1C(=O)C(C(N)=O)=C[C@]2(Cc3ccccc3)c3nn(C)c(-c4ccccc4)c3CC[C@@H]12` (racemic) [Example 165, rac-(5aS,6S,9aR)-9a-benzyl-2,6-dimethyl-7-oxo-3-phenyl-4,5,5a,6,7,9a-hexahydro-2H-benzo[g]indazole-8-carboxamide] the value was 0.706 µM; for `CC(C)Oc1nc(-c2ccccc2F)nc2c1CC[C@H]1[C@H](C)C(=O)C(C#N)=C[C@]21c1ccccc1` [Example 31, (6aS,7S,10aR)-2-(2-fluorophenyl)-4-isopropoxy-7-methyl-8-oxo-10a-phenyl-5,6,6a,7,8,10a-hexahydrobenzo[h]quinazoline-9-carbonitrile], 0.272 µM.

The values are drawn from US9464082B2, “Aryl and arylalkyl substituted pyrazolyl and pyrimidinyl tricyclic enones as antioxidant inflammation modulators” (AbbVie Inc., priority 2014, dated 2016).
